PMC9783227, “New Derivatives of the Multi-Stage Active Malaria Box Compound MMV030666 and Their Antiplasmodial Potencies” (Pharmaceuticals, 2022)
Like-named read-outs stand apart in the source and are kept apart here.

Key:
[1] = Parallel artificial membrane permeability assay (PAMPA); settings: PAMPA, PBS pH 7.4, 200 µM, 5 h, room temperature; for Papp at 5 h, 200 µM: pH 7.4, Pe
Description: The parallel artificial membrane permeability assay (PAMPA) is a fast and easy high-throughput assay to determine passive permeability of compounds through semi-permeable membranes (for example the blood-brain-barrier) without the influence of efflux pumps or transporter molecules.
With the high-throughput PAMPA the newly synthesized compounds were tested for their passive permeability through cell membranes without the influence of efflux pumps or transporter proteins. The assay was performed using a Corning® Gentest^TM Pre-coated PAMPA Plate System with 96-well polystyrene plates. The bottom of the acceptor plate consists of a porous membrane, whereby the pores are lined with a lipid-oil-lipid triple layer. Stock solutions of each test compound at 10 mM were prepared in DMSO or methanol and diluted with phosphate-buffered saline (PBS at a pH of 7.4) to a final concentration of 200 µM. […] The donor plate (bottom plate) was filled with the compound solutions, whereby all compounds were tested in quadruplicates. Each well of the acceptor plate (top plate) was filled with PBS buffer. Donor and acceptor plates were combined and incubated at room temperature for 5 h. After that, the plates were separated and 150 µL of each well of both plates were transferred to 96-well UV plates (Greiner Bio-One). Absorption at different wavelengths covering a range from 200 to 300 nm was measured using a SpectraMax M3 UV plate reader. […] The plates were analyzed at the wavelength where the R^2 value of the calibration curve was higher than 0.99 [41]. […] (2) cequ=[cD(t)∗VD+cA(t)∗VA]/(VD+VA) where: • VD—donor well volume (0.3 mL); • VA—acceptor well volume (0.2 mL); • cA(t)—acceptor well compound concentration at time t; • cD(t)—donor well compound concentration at time t.
Recovery of compounds from donor and acceptor wells (mass retention) was calculated as shown in the equation below. Data were only accepted when recovery exceeded 70%. (3) R=1−[cD(t)∗VD+cA(t)∗VA]/(c0∗VD) where: • R—mass retention (%); • VD—donor well volume (0.3 mL); • VA—acceptor well volume (0.2 mL); • cA(t)—acceptor well compound concentration at time t; • cD(t)—donor well compound concentration at time t; • c0—initial donor well compound concentration (200 µM).

L-6 cells [2] = test system: L-6 cells; set-up: method as in PMID 34832891; settings: comparison compounds 1-4 of the first series; read-out: Cytotoxicity L-6 Cells IC50; cited from earlier work
P. falciparum NF54 [3] = test system: P. falciparum NF54; set-up: method as in PMID 34832891; settings: comparison compounds 1-4 of the first series, cited from earlier work; for IC50: read-out: PfNF54 IC50
P. falciparum NF54 [4] = experiment: In vitro microplate assay against P. falciparum NF54 (3H-hypoxanthine incorporation); format: cell-based, Plasmodium falciparum; settings: for IC50: average of four determinations, read-out: PfNF54 IC50; for S.I. = IC50 (Cyt.)/IC50 (PfNF54): L-6 cells IC50 / PfNF54 IC50
Description: (§1) All newly prepared compounds were tested for their in vitro activity against the chloroquine sensitive strain NF54 of P. falciparum. Cytotoxicity was determined using L-6 cells (rat skeletal myofibroblasts). Chloroquine and podophyllotoxin were used as standards.
The in vitro activity of compounds against erythrocytic stages of the drug sensitive NF54 strain of P. falciparum […] was determined using a ^3H-hypoxanthine incorporation assay. Compounds were dissolved in DMSO at 10 mg/mL and further diluted in medium before adding to parasite cultures that were incubated in RPMI 1640 medium without hypoxanthine, supplemented with HEPES (5.94 g/L), NaHCO3 (2.1 g/L), neomycin (100 U/mL), AlbumaxR (5 g/L) and washed human red blood cells A+ at 2.5% haematocrit (0.3% parasitaemia). Serial drug dilutions of eleven 3-fold dilutions steps covering a range from 100 to 0.002 µg/mL were prepared. The 96-well plates were incubated in a humidified atmosphere at 37 °C; 4% CO2, 3% O2, 93% N2. After 48 h of incubation time, 0.05 mL of ^3H-hypoxanthine (=0.5 µCi) was added to each well of the plate. The plates were incubated for further 24 h under the same conditions. Plates were then harvested using a Betaplate^TM cell harvester (Wallac, Zurich, Switzerland). Red blood cells were transferred onto a glass fiber filter and then washed with distilled water. The dried filters were inserted into a plastic foil with 10 mL of scintillation fluid and counted in a Betaplate^TM liquid scintillation counter (Wallac, Zurich, Switzerland). IC50 values were calculated from sigmoidal inhibition curves by linear regression using Microsoft Excel. Chloroquine (Sigma C6628) was used as control.

[5] = Solubility in DMSO and methanol (PAMPA stock solutions); format: physicochemical
Description: Permeability is defined using hydrochlorothiazide (Pe = 0.09 × 10^−6 cm/s) and caffeine (Pe = 8.00 × 10^−6 cm/s) as standards.
With the high-throughput PAMPA the newly synthesized compounds were tested for their passive permeability through cell membranes without the influence of efflux pumps or transporter proteins. The assay was performed using a Corning® Gentest^TM Pre-coated PAMPA Plate System with 96-well polystyrene plates. The bottom of the acceptor plate consists of a porous membrane, whereby the pores are lined with a lipid-oil-lipid triple layer. Stock solutions of each test compound at 10 mM were prepared in DMSO or methanol and diluted with phosphate-buffered saline (PBS at a pH of 7.4) to a final concentration of 200 µM. Hydrochlorothiazide (Pe = 0.9 nm/s) and caffeine (Pe = 80 nm/s) were used as standards. The donor plate (bottom plate) was filled with the compound solutions, whereby all compounds were tested in quadruplicates. Each well of the acceptor plate (top plate) was filled with PBS buffer. Donor and acceptor plates were combined and incubated at room temperature for 5 h. After that, the plates were separated and 150 µL of each well of both plates were transferred to 96-well UV plates (Greiner Bio-One). Absorption at different wavelengths covering a range from 200 to 300 nm was measured using a SpectraMax M3 UV plate reader. By measuring serial dilutions of five dilution steps covering a range from 200 to 12.5 µM, a calibration curve was prepared. The plates were analyzed at the wavelength where the R^2 value of the calibration curve was higher than 0.99 [41]. […] (2) cequ=[cD(t)∗VD+cA(t)∗VA]/(VD+VA) where: • VD—donor well volume (0.3 mL); • VA—acceptor well volume (0.2 mL); • cA(t)—acceptor well compound concentration at time t; • cD(t)—donor well compound concentration at time t.

in vitro = settings: rat
Description: as §1
(§2) The cytotoxicity assays were performed using 96-well microtiter plates, each well containing 4000 L-6 cells (a primary cell line derived from rat skeletal myofibroblasts, ATCC CRL-1458^TM) in 0.1 mL of RPMI 1640 medium supplemented with 1% glutamine (200 mM) and 10% fetal bovine serum. Serial drug dilutions of eleven 3-fold dilution steps covering a range from 100 to 0.002 µg/mL were prepared. After 70 h of incubation, the plates were inspected under an inverted microscope to assure growth of the controls and sterile conditions. Then, 0.01 mL resazurin solution (resazurin, 12.5 mg in 100 mL double-distilled water) was added to each well and the plates were incubated for another 2 h. The plates were read with a Spectramax Gemini XS microplate fluorometer (Molecular Devices Cooperation, Sunnyvale, CA, USA) using an excitation wavelength of 536 nm and an emission wavelength of 588 nm. IC50 values were calculated by linear regression from the sigmoidal dose inhibition curves using SoftmaxPro software (Molecular Devices Cooperation, Sunnyvale, CA, USA). Podophyllotoxin (Sigma P4405) was used as control.

L-6 cells [6] = experiment: in vitro
Description: as §1, §2

[7] = Plasmodium falciparum, NF54, chloroquine sensitive strain NF54, erythrocytic stages
[8] = reason why permeability could not be detected
[9] = chloroquine sensitive strain NF54, erythrocytic stages

Row | Compound | IC50 (P. falciparum NF54 [4]; [7]) [µM] | IC50 at 72 h (in vitro) [µM] | Papp at 5 h, 200 µM [1] [×10⁻⁶ cm/s] | other results
1 | CC(C)(C)OC(=O)N1CCN(c2ccccc2NC(=O)c2cccc(C(F)(F)F)c2Oc2ccc(F)cc2)CC1 [Compound 1, reference compound] |  |  |  | Pe [1]: 2.37 10^−6 cm/s; IC50 (L-6 cells [2]): 131 µM; S.I. = IC50 (Cyt.)/IC50 (PfNF54) (P. falciparum NF54 [3]): 316.9; IC50 (P. falciparum NF54 [3]): 0.413 µM
2 | CC(C)(C)OC(=O)N1CCN(c2ccc(NC(=O)c3cccc(C(F)(F)F)c3Oc3ccc(F)cc3)cc2)CC1 [Compound 2] |  |  |  | IC50 (L-6 cells [2]): 124 µM; S.I. = IC50 (Cyt.)/IC50 (PfNF54) (P. falciparum NF54 [3]): 461.0; IC50 (P. falciparum NF54 [3]): 0.269 µM
3 | CC(C)(C)C(=O)N1CCN(c2ccccc2NC(=O)c2cccc(C(F)(F)F)c2Oc2ccc(F)cc2)CC1 [Compound 3] |  |  |  | IC50 (L-6 cells [2]): 185 µM; S.I. = IC50 (Cyt.)/IC50 (PfNF54) (P. falciparum NF54 [3]): 299.7; IC50 (P. falciparum NF54 [3]): 0.617 µM
4 | CC(C)(C)C(=O)N1CCN(c2ccc(NC(=O)c3cccc(C(F)(F)F)c3Oc3ccc(F)cc3)cc2)CC1 [Compound 4] |  |  |  | IC50 (L-6 cells [2]): 99.6 µM; S.I. = IC50 (Cyt.)/IC50 (PfNF54) (P. falciparum NF54 [3]): 171.9; IC50 (P. falciparum NF54 [3]): 0.58 µM
5 | CC(C)(C)OC(=O)N1CCN(c2ccccc2NC(=O)c2ccccc2Oc2ccc(F)cc2)CC1 [Compound 26, tert-Butyl 4-{2-[2-(4-fluorophenoxy)benzamido]phenyl}piperazine-1-carboxylate] | 0.627 | 154 |  | solubility in DMSO and methanol [5, 8]: insufficient solubility
6 | CC(C)(C)C(=O)N1CCN(c2ccccc2NC(=O)c2ccccc2Oc2ccc(F)cc2)CC1 [Compound 33, N-{2-[4-(2,2-Dimethylpropanoyl)piperazin-1-yl]phenyl}-2-(4-fluorophenoxy)benzamid] | 2.15 | 38.3 |  | solubility in DMSO and methanol [5, 8]: insufficient solubility
7 | CC(C)(C)OC(=O)N1CCN(c2ccc(NC(=O)c3cccc([N+](=O)[O-])c3Oc3ccc(F)cc3)cc2)CC1 [Compound 38, tert-Butyl 4-{4-[2-(4-fluorophenoxy)-3-nitrobenzamido]phenyl}piperazine-1-carb-oxylate] | 1.43 | 70.8 | 1.53 | 
8 | CC(C)(C)OC(=O)N1CCN(c2ccc(NC(=O)c3cccc(C(F)(F)F)c3Sc3ccc(F)cc3)cc2)CC1 [Compound 39, tert-Butyl 4-(4-{2-[(4-fluorophenyl)sulfanyl]-3-(trifluoromethyl)benzamido}phenyl) piperazine-1-carboxylate] | 0.149 | 31.8 | 3.77 | S.I. = IC50 (Cyt.)/IC50 (PfNF54) (P. falciparum NF54 [4]): 212.8; Pe [1]: 4.31 10^−6 cm/s
9 | CC(C)(C)OC(=O)N1CCN(c2ccc(NC(=O)c3ccccc3Oc3ccccc3)cc2)CC1 [Compound 40, tert-Butyl 4-[4-(2-phenoxybenzamido)phenyl]piperazin-1-carboxylate] | 3.09 | 98.3 | 5.57 | S.I. = IC50 (Cyt.)/IC50 (PfNF54) (P. falciparum NF54 [4]): 31.78
10 | CC(C)(C)OC(=O)N1CCN(c2ccc(NC(=O)c3cccc(C(F)(F)F)c3Nc3ccccc3)cc2)CC1 [Compound 41, tert-Butyl 4-{4-[2-anilino-3-(trifluoromethyl)benzamido]phenyl}piperazin-1-carboxylate] | 0.539 to 0.634 | 33.8 | 1.32 | IC50 (P. falciparum NF54 [4]; [9]): 0.634 µM
11 | CC(C)(C)OC(=O)N1CCN(c2ccc(NC(=O)c3cccc(C(F)(F)F)c3Nc3ccc(F)cc3)cc2)CC1 [Compound 42] | 0.539 to 0.634 | 94.2 | 0.2 | IC50 (P. falciparum NF54 [4]; [9]): 0.539 µM
12 | CC(C)(C)C(=O)N1CCN(c2ccc(NC(=O)c3ccccc3Oc3ccc(F)cc3)cc2)CC1 [Compound 43, N-{4-[4-(2,2-Dimethylpropanoyl)piperazin-1-yl]phenyl}-2-(4-fluorophenoxy)benzamid] | 5.62 | 184 | 0.02 | 
13 | CC(C)(C)C(=O)N1CCN(c2ccc(NC(=O)c3cccc([N+](=O)[O-])c3Oc3ccc(F)cc3)cc2)CC1 [Compound 44, N-{4-[4-(2,2-Dimethylpropanoyl)piperazin-1-yl]phenyl}-2-(4-fluorophenoxy)-3-nitrobenzamid] | 1.5 | 144 |  | solubility in DMSO and methanol [5, 8]: insufficient solubility
14 | CC(C)(C)C(=O)N1CCN(c2ccc(NC(=O)c3cccc(F)c3Oc3ccc(F)cc3)cc2)CC1 [Compound 45, N-{4-[4-(2,2-Dimethylpropanoyl)piperazin-1-yl]phenyl}-3-fluoro-2-(4-fluorophenoxy)benzamid] | 1.79 | 109 | 5.13 | 
15 | CC(C)(C)OC(=O)N1CCN(c2ccccc2NC(=O)c2cccc(N)c2Oc2ccc(F)cc2)CC1 [Compound 46, tert-Butyl 4-{2-[3-amino-2-(4-fluorophenoxy)benzamido]phenyl}piperazine-1-carboxylate] | 1.01 | 127 | 1.44 | S.I. = IC50 (Cyt.)/IC50 (PfNF54) (P. falciparum NF54 [4]): 126.0
16 | CC(C)(C)OC(=O)N1CCN(c2ccc(NC(=O)c3cccc(N)c3Oc3ccc(F)cc3)cc2)CC1 [Compound 47, tert-Butyl 4-{4-[3-amino-2-(4-fluorophenoxy)benzamido]phenyl}piperazine-1-carboxylate] | 3.08 | 158 | 0.62 | 
17 | tert-Butyl 4-{4-[3-fluoro-2-(4-fluorophenoxy)benzamido]phenyl}piperazin-1-carboxylate [Compound 27] |  |  |  | S.I. = IC50 (Cyt.)/IC50 (PfNF54) (P. falciparum NF54 [4]): 237.5; IC50 (P. falciparum NF54 [4]; [9]): 0.65 µM; solubility in DMSO and methanol [5]: insufficient solubility; IC50 (L-6 cells [6]): 154 µM
